Assays:
SIRT1 [1] = experiment: Test Example 2: real-time PCR of SIRT1 mRNA expression in femoral muscle of mice given KIT13; type: in vivo; conditions: four-week-old male c57BL6J mice, by drinking water, 20 µg/kg for four weeks; femoral muscles; mRNA normalized by β-actin; FIG. 7
Protocol: (§1) KIT13 was administered to four-week-old male c57BL6J mice (five mice per group, n = 5) by drinking water at a dose of 20 µg/kg for four weeks. Femoral muscles were collected from each mouse and analyzed as follows.
(§2) Femoral muscles were crushed by homogenization using 18G to 25G injection needles in Buffer A (0.25 M sucrose, 10 mM Hepes-KOH (pH 7.5), 1 mM EDTA, protease inhibitor cocktail), and RNA was extracted from the cells based on equal amounts of protein using TRIzol (manufactured by Thermo Fisher Scientific). Subsequently, a first strand cDNA was prepared using PrimeScript RT Master Mix (manufactured by Takara), and mRNA expression of target genes and endogenous control genes was detected by real-time PCR using TB Green Premix Ex Taq II (manufactured by Takara) and T100 (trademark) Thermal Cycler (manufactured by BIO-RAD). The target genes were NAMPT and SIRT1, and the endogenous control gene was β-actin. Measurement values of each gene were normalized by measurement values of β-actin.

SIRT1 [2] = experiment: Test Example 1: real-time PCR of SIRT1 mRNA expression in HHORSCs cultured with KIT13; type: cell-based; conditions: Human hair outer root sheath cells (HHORSCs), 5 µg/ml, 7 hours; mRNA normalized by 18S rRNA; vs culture medium not containing KIT13; FIG. 2
Protocol: (§3) Human hair outer root sheath cells (HHORSCs; manufactured by ScienCell Research Laboratories, #2420) were cultured for 7 hours in a culture medium containing 5 µg/ml of KIT13. As a culture medium for HHORSCs, a mesenchymal stem cell medium (manufactured by ScienCell Research Laboratories, #7501) was used. As a negative control, HHORSCs were cultured in a culture medium not containing KIT13.
(§4) RNA was extracted from cells using TRIzol (manufactured by Thermo Fisher Scientific). Subsequently, a first strand cDNA was prepared using PrimeScript RT Master Mix (manufactured by Takara), and mRNA expression of target genes and endogenous control genes was detected by real-time PCR using TB Green Premix Ex Taq II (manufactured by Takara) and T100 (trademark) Thermal Cycler (manufactured by BIO-RAD). The target genes were NAMPT, SIRT1, and NRF1, UQCRC1, and ATP5A1 whose expression is induced by activation of SIRT1 (Yuanyuan Huang, and ten others, "Resveratrol-induced Sirt1 phosphorylation by LKB1 mediates mitochondrial metabolism", J. Biol. Chem., 2021, 297(2), 100929). As the endogenous control gene, 18S ribosomal RNA (18S rRNA) was used, and measurement values of each gene were normalized by measurement values of 18S rRNA.

NAMPT [3] = experiment: Test Example 2: real-time PCR of NAMPT mRNA expression in femoral muscle of mice given KIT13; type: in vivo; conditions: four-week-old male c57BL6J mice, by drinking water, 20 µg/kg for four weeks; femoral muscles; mRNA normalized by β-actin; FIG. 6
Protocol: as §1, §2

UQCRC1 = experiment: Test Example 1: real-time PCR of UQCRC1 mRNA expression in HHORSCs cultured with KIT13; type: cell-based; conditions: Human hair outer root sheath cells (HHORSCs), 5 µg/ml, 7 hours; mRNA normalized by 18S rRNA; vs culture medium not containing KIT13; FIG. 4
Protocol: as §3, §4

NRF1 = experiment: Test Example 1: real-time PCR of NRF1 mRNA expression in HHORSCs cultured with KIT13; type: cell-based; conditions: Human hair outer root sheath cells (HHORSCs), 5 µg/ml, 7 hours; mRNA normalized by 18S rRNA; vs culture medium not containing KIT13; FIG. 3
Protocol: as §3, §4

NAMPT [4] = experiment: Test Example 1: real-time PCR of NAMPT mRNA expression in HHORSCs cultured with KIT13; type: cell-based; conditions: Human hair outer root sheath cells (HHORSCs), 5 µg/ml, 7 hours; mRNA normalized by 18S rRNA; vs culture medium not containing KIT13; FIG. 1
Protocol: as §3, §4

ATP5A1 = experiment: Test Example 1: real-time PCR of ATP5A1 mRNA expression in HHORSCs cultured with KIT13; type: cell-based; conditions: Human hair outer root sheath cells (HHORSCs), 5 µg/ml, 7 hours; mRNA normalized by 18S rRNA; vs culture medium not containing KIT13; FIG. 5
Protocol: as §3, §4

CCCCC/C=C\C/C=C\C/C=C\C/C=C\CCCC(=O)O[C@H](COCCCCCCCCCCCCCCCCCC)COP(=O)(O)OCCN [KIT13]
increased: relative expression level of UQCRC1 (UQCRC1) | relative expression level of NRF1 (NRF1) | relative expression level of ATP5A1 (ATP5A1)
significantly increased: relative expression level of SIRT1 in muscle (SIRT1 [1]) | relative expression level of SIRT1 (SIRT1 [2]) | relative expression level of NAMPT in muscle (NAMPT [3]) | relative expression level of NAMPT (NAMPT [4])
